{"source": "patent US20150284362A1", "about": "“CARBAZOLE-CONTAINING AMIDES, CARBAMATES, AND UREAS AS CRYPTOCHROME MODULATORS” (ReSet Therapeutics, Inc., priority 2014, published 2015)", "key": {"[1]": {"assay": "Pharmacokinetic analysis in ICR mice (plasma and liver)", "type": "in vivo", "conditions": "male, plasma, po, mouse, 50 mg/kg P.O., Table 4, read-out: Total Plasma AUC, AUC (0-last)", "description": "Male ICR mice (weighing 30-40 g, Charles River Laboratories) were used for the experiment with n=3 mice for each experimental group (27 mice total for the study). […] Blood and liver tissue were collected at the following time points after administration: 15, 30, 60, 90 minutes, 3, 6, 12 and 24 hours. A control group of animals (TO) was also sampled. Animals were euthanized with CO2 and the blood collected from the heart using cardiac puncture, transferred to an EDTA tube, and then centrifuged at 5400 rpm for 5 minutes at 4° C. The resultant plasma was frozen using dry ice and then stored at −80° C. until ready for assay. Liver tissue was removed from each animal, 0.5 g was collected in an eppendorff, frozen and submitted for pharmacokinetic measurement."}, "[2]": {"tested_on": "core clock gene mRNAs in liver", "assay": "24 hour gene expression study, liver mRNA by RT-qPCR, Balb/c mice", "type": "in vivo, mouse", "conditions": "50 mg/kg PO BID, 7 doses", "description": "(§1) E.Z.N.A.® HP Total RNA Isolation Kits (R6812-01 and the protocol described in the Manual, Revised 2010) were utilized to prepare and isolate RNA from the liver samples. To prepare the RNA samples, 10-30 mg of sample was removed from RNA-Later and placed in a 1.5 ml microfuge tube. GTC lysis buffer (700 μl) was added to the tissue, which was homogenized with a rotor-stator homogenizer (e.g. Tissue-Tearor, Model #985370 BioSpec Products with 4.5 mm probe, Cat. #985370-04), and then centrifuged at full speed (≧13,000×g) for 5 minutes. The cleared supernatant was transferred by pipetting to a DNA Clearance Column Pre-inserted in a 2 mL Collection Tube. The assembled column was centrifuged at 13,000×g for 1 minute, and the flow-through was saved. An equal volume (700 μl) of 70% ethanol was added to the lysate and mixed. The sample was then applied to a HiBind RNA spin column placed into a 2 ml collection tube, which was centrifuged at 10,000×g for 60 seconds at room temperature. RNA Wash Buffer I (250 μl) was added by pipetting directly onto a new HiBind RNA column inserted in a 2 ml collection tube. The assembled column was centrifuged at 10,000×g for 60 seconds. The RNA column was placed into a new 2 ml collection tube. DNase I stock solution is pipetted (75 μl) directly onto the surface of the HiBind RNA resin in each column (Using DNAse Digestion with RNase Free DNase Set (E1091): for each HiBind RNA column, the DNase I stock solution was prepared as followed: E.Z.N.A.® DNase I Digestion Buffer 73.5 μl, RNase Free DNase I (20 Kunitz/μl) 1.5 μl=Total Volume 75 μl.). The column with bound RNA was incubated at room temperature (25-30° C.) for 15 minutes. RNA Wash Buffer I (500 μl) was added to the column and placed on a bench top for 2 minutes. After centrifuging at 10,000×g for 60 seconds, discarding the flow-through, 500 μl of RNA Wash Buffer II was added and centrifuged at 10,000×g for 60 seconds. Another 500 μl of RNA Wash Buffer II was added and the column assembly was centrifuged at 10,000×g for 60 seconds. The column was centrifuged for 2 minutes at maximum speed to completely dry the HiBind matrix. […]\nRediPlate 96 RiboGreen RNA Quantification Kit (Invitrogen) RediPlate standard curve was prepared by transferring 20 μl reconstituted RNA standard to a RediPlate well reconstituted in 180 μl RediPlate TE buffer. […] After transferring 5 μl to RediPlate well reconstituted in 195 μl TE buffer and incubating 10 min. at RT, Fluorescence Intensity of wells with standards and samples were read in a Tecan M200 with Excitation set at 480 nm and Emission set at 520 nm with the gain set to ˜70%. […] A standard curve was generated in GraphPad Prism and sample readings (unknowns) are interpolated via linear regression analysis, and the RNA sample concentrations were calculated. […]"}, "db/db mice": {"tested_on": "db/db mice", "assay": "Increasing dosages of Compound 72 over 7 days in db/db mouse model of type II diabetes", "type": "in vivo", "conditions": "10, 50, 100 mg/kg PO QD 7 days", "description": "Significance was accepted when p<0.05."}, "[3]": {"tested_on": "core clock and gluconeogenic gene mRNAs in liver", "assay": "24 hour gene expression study, liver mRNA by RT-qPCR, C57Bl/6J DIO mice", "type": "in vivo, mouse", "conditions": "50 mg/kg PO BID, 5 doses", "description": "Male C57Bl/6J DIO mice were purchased at 17 weeks of age (The Jackson Laboratory, Sacramento, Calif.) and acclimated for a 2 week period before being used for the experiment. Overall group size was 15 per treatment, divided into 5 time-points to give a final group size of 3 mice.\nIn total, each mouse received 5 doses of compound over the course of the experiment. Mice were weighed and randomly assigned to each treatment based on weight the evening before the commencement of the study. Beginning on Day 3 at 3:00 PM, a group of animals from the vehicle and Compound 72-treated groups were euthanized using CO2 asphyxiation, 50 mg of liver, epididymal fat, and skeletal muscle, respectively, were excised and placed in tube containing 500 μl of RNALater. This procedure took place for the remainder of the time-point groups at their given harvest times. Plasma samples were also taken for each animal and frozen, to be used for later measurement of compound levels.\nas §1, with “matrix. The column was placed in a clean 1.5 ml microcentrifuge tube and 40-70 μl of molecular biology grade water is added.” for “matrix.”\nRediPlate 96 RiboGreen RNA Quantification Kit (Invitrogen) RediPlate standard curve was prepared by transferring 20 μl reconstituted RNA standard to a RediPlate well reconstituted in 180 μl RediPlate TE buffer. […]"}, "[4]": {"conditions": "at ZT8 and 32 hours after ZT0 vs vehicle"}}, "data": [{"smiles": "O=C1NCCN1CC(O)Cn1c2ccc(F)cc2c2cc(F)ccc21", "note": "(centres unmarked) [Compound 72, 1-(3-(3,6-difluoro-9H-carbazol-9-yl)-2-hydroxypropyl)imidazolidin-2-one]", "values": [{"measurement": "AUC(0-t)", "setting": "[1]", "result": 4160, "unit": "ng·h/mL"}, {"measurement": "Bmal1 mRNA in liver", "setting": "[2]; [4]", "result": "substantially increased"}, {"measurement": "Per2 mRNA in liver", "setting": "[2]; over 24 hours vs vehicle", "result": "suppressed"}, {"measurement": "Cry1 mRNA in liver", "setting": "[2]; vs vehicle", "result": "suppressed during its peak of expression during the dark period"}, {"measurement": "Cry2 mRNA in liver (daytime peak)", "setting": "[2]; vs vehicle", "result": "strongly attenuated"}, {"measurement": "OGTT glucose excursion following a glucose load", "setting": "db/db mice", "result": "dose dependent effect on glucose excursion"}, {"measurement": "Bmal1 mRNA in liver", "setting": "[3]; [4]", "result": "substantially increased"}, {"measurement": "Per2 mRNA in liver", "setting": "[3]; over 24 hours vs vehicle", "result": "suppressed"}, {"measurement": "Cry1 mRNA in liver", "setting": "[3]; vs vehicle", "result": "suppressed during its peak of expression during the dark period"}, {"measurement": "Cry2 mRNA in liver (daytime peak)", "setting": "[3]; vs vehicle", "result": "strongly attenuated"}, {"measurement": "circadian pattern of mRNAs for gluconeogenic genes Pck1 and G6Pc in liver", "setting": "[3]; vs vehicle", "result": "substantially altered"}]}]}
